Assay results reported in patent US11945862B2, “Compositions and methods for antibody production” (ImmunoGen, Inc., priority 2017, dated 2024).
Where a name gives a salt, the structure may show the parent alone. Read-outs that look alike come from different tables or passages of the source. Blank lines part the entries; values can stand above or below the compound they belong to.

What was measured:
[1] = system: humanized N901 antibody; assay: Antibody disulfide reduction by CHO cell lysate (RIPA buffer), thiol/antibody by Ellman's assay; assay type: biochemical; conditions: for decrease in antibody-disulfide reduction: versus control without agent
Method: For all of the examples described below, cell damage was simulated by multiple freeze-thaw cycles of cells, by addition of RIPA buffer (50 mM Tris-HCl, pH 7.4, 1% NP-40, 0.5% sodium deoxycholate, 0.1% sodium dodecylsulfate), or by using microfluidizer. This damaged cell supernatant or lysate was then incubated with a buffered solution containing antibody with or without the anti-reduction agent being tested, following which the extent of the antibody-disulfide reduction was measured using Ellman's assay for thiol (P. W. Riddles, R. L. Blakeley, and B. Zerner, Methods Enzymol., 91, 49-60, 1983) or by non-reducing SDS protein LabChip analysis. The total thiol level present in the mixture of damaged cell supernatant/lysate was measured initially.
The effect of 1,2-naphthoquinone-4-sulfonic acid (NQS) on antibody-disulfide reduction was studied by incubating 1,2-naphthoquinone-4-sulfonic acid at several concentrations with antibody and damaged CHO lysate. The damaged CHO cell lysate was generated by the addition of 0.5 ml RIPA buffer (50 mM Tris-HCl, pH 7.4, 1% NP-40, 0.5% sodium deoxycholate, 0.1% sodium dodecylsulfate) to 100 million CHO cells. The thiol concentration in CHO cell lysate was measured by Ellman's assay as 2.1 mM.
Each sample contained pre-mixed 0.5 ml RIPA buffer (50 mM Tris-HCl, pH 7.4, 1% NP-40, 0.5% sodium deoxycholate, 0.1% sodium dodecylsulfate) with 1 mg humanized N901 antibody, with or without 1,2-naphthoquinone-4-sulfonic acid (25 micromolar, or 50 micromolar, or 100 micromolar), which was added to a cell pellet of 100 million CHO cells, and the resuspended cells were incubated at ambient temperature for 30 minutes, following which the cell debris were pelleted by centrifugation (16,000 g, 5 min). The supernatant from each sample was added to 50 microliter immobilized-Protein A beads (RepliGen) and rotated at ambient temperature for 3 hours, after which the supernatant was removed and the beads washed with PBS.
(§1) The thiol content of the immobilized antibody was determined by the addition of 0.6 ml of PBS containing 0.5 mM DTNB (Ellman's reagent) to the beads, rotation for about 10 minutes, centrifugation, and absorbance measurement of supernatant at 412 nm.
The effect of anthraquinone-2-sulfonic acid (AQS) on antibody-disulfide reduction was studied during co-incubation of anthraquinone-2-sulfonic acid with antibody and damaged CHO lysate. Each sample contained pre-mixed 1 ml RIPA buffer (50 mM Tris-HCl, pH 7.4, 1% NP-40, 0.5% sodium deoxycholate, 0.1% sodium dodecylsulfate) with 1 mg humanized N901 antibody, with or without 0.2 mM anthraquinone-2-sulfonic acid (AQS), which was added to a cell pellet of 100 million CHO cells, and the resuspended cells were incubated at ambient temperature for 30 minutes, following which the cell debris were pelleted by centrifugation (16,000 g, 5 min). The thiol concentration in CHO cell lysate was 1 mM (Ellman's assay).
as §1, with “The supernatant from each sample was added to 50 microliter immobilized-Protein A beads (RepliGen) and rotated at ambient temperature for 3 hours, after which the supernatant was removed and the beads washed with PBS. The” for “The”
In another experiment, 1 mg huN901 antibody was incubated with CHO lysate, with or without 0.4 mM anthraquinone-2-sulfonic acid for 4 hours. The mixture was then analyzed for thiol/antibody as above.
The thiol concentration in CHO cell lysate was 1 mM (Ellman's assay).
The supernatant from each sample was added to 50 microliter immobilized-Protein A beads (RepliGen) and rotated at ambient temperature for 3 hours, after which the supernatant was removed and the beads washed with PBS. […]

[2] = system: Humanized FOLR1 IgG1 antibody; assay: Antibody disulfide reduction by CHO cell lysate (RIPA buffer), thiol per antibody by Ellman's assay; assay type: biochemical
[3] = Reactivity of AQS with a model thiol, Ellman's assay of thiol groups; conditions: 1 mM AQS with 1 mM cysteine ethyl ester, PBS, ambient temperature
Method: In a separate experiment, the reactivity of anthraquinone-2-sulfonic acid (AQS) with a model thiol (L-cysteine ethyl ester) at ambient temperature was investigated by incubating 1 mM AQS with 1 mM cysteine ethyl ester at ambient temperature in PBS, using Ellman's assay of thiol groups to measure the extent of reaction. At time points of 1 hour, 2 hours, 3 hours, and 4 hours, the percent decrease in thiol values for the 1 mM AQS with 1 mM cysteine ethyl ester mixture versus thiol in a 1 mM cysteine ethyl ester (No AQS) control were 2%, 8%, 12%, and 20%, respectively.

[4] = system: Calu3 human lung cancer cells; assay: Cell viability, microscopic observation and Cell Titer Glo ATP assay; assay type: cell-based; conditions: 1 day
Method: The effect of incubating cells with anthraquinone-2-sulfonic acid (AQS) was tested using Calu3 human lung cancer cells. Effects on cell viability were assayed by microscopic observation of cells and by ATP-based viability assay using Cell Titer Glo reagent (Promega).

[5] = system: humanized FOLR1 IgG1; assay: Antibody fragmentation in HCCF treated with 20% (v/v) microfluidized CHO cells, non-reducing SDS-Protein Lab Chip; assay type: biochemical; conditions: 1 mM of each additive, 6 h; control 78% fragmentation
[6] = system: CHO cells; assay: Viability of CHO cells after 1 day treatment; conditions: antibody-producing CHO cells, about two weeks continuous culture, control 63.8%
[7] = system: humanized IgG4; assay: IgG4 disulfide reduction by CHO cell lysate, DTNB thiol assay; assay type: biochemical; conditions: 1 mM agent, 30% v/v CHO cell lysate, 4 hours, pH 7; control 7.7
Method: All samples were adjusted to pH 7 and incubated with 200 μl protein A beads for 4 hours while rotating at room temperature. After the incubation the supernatant was removed and beads washed three times with 10 ml PBS. To analyze the thiol content of the protein A-bound IgG4 antibody, the beads were incubated with a 0.5 mM DTNB solution for 5 min and the absorbance of the supernatant measured at 412 nm.

[8] = system: Humanized IgG2 antibody; assay: IgG2 disulfide reduction by CHO cell lysate, DTNB thiol assay; assay type: biochemical; conditions: 1 mM agent, 40% v/v CHO cell lysate, 5 hours, pH 7; control 0.84
Method: Humanized IgG2 antibody (1 mg/ml; final concentration) was incubated with 40% v/v CHO cell lysate (˜40 million cells lysed with 0.4 ml RIPA buffer and debris removed by centrifugation) in a total volume of 1 ml. The control sample was adjusted to pH 7 and rotated at RT for 5 hours with 100 μl protein A beads. […] After the incubation time of 5 hours, the supernatant was removed and the beads were washed three times with 10 ml PBS before the thiol amount of the immobilized antibody was analyzed by adding 0.5 mM DTNB and measuring the absorbance at 412 nm.

[9] = physchem; conditions: thermodynamic from solid
[10] = Redox potential of antibody solution with media additive over a range of DTT concentrations; assay type: physicochemical; conditions: 1 mM additive, DTT 0.34 μM to 170 μM, 37° C., 1 h
[11] = system: M9346A antibody; assay type: biochemical
[12] = system: M9346A antibody; assay type: biochemical; conditions: 1 mM additive, conditions where control without additive was 100% fragmented
Method: Antibody reduction was induced in a biological assay by adding cell lysate to purified monoclonal antibody. […]. Increasing amounts of CHO cell lysate were added to mimic different percentages of cell lysis, ranging from […]. Fresh NADPH was added to a concentration of 400 μM. The mixtures were incubated in a water bath at 37° C. for 1 h. Free thiols were alkylated by addition of 10% (v/v) of 50 mM N-ethyl-maleimide (NEM) solution. Samples were analyzed by non-reduced sodium dodecyl sulfate denaturing capillary electrophoresis (NR-CE-SDS).
To test the capacity for protection further, the stringency of the assay was increased. […].

SMILES: O=C1c2ccccc2C(=O)c2cc(S(=O)(=O)O)ccc21 [AQS, anthraquinone-2-sulfonic acid]
- thiol/antibody ([1]; 0.2 mM agent, 3 hours, lysate thiol 1 mM, control 4.86): 2.46 thiol/antibody
- decrease in antibody-disulfide reduction ([1]; 0.2 mM agent, 3 hours): 49%
- thiol/antibody ([1]; 0.4 mM agent alone, 4 hours, control 4.34): 1.65 thiol/antibody
- decrease in antibody-disulfide reduction ([1]; 0.4 mM agent, 4 hours): 62%
- thiol per antibody ([2]; 2 mM agent, 3 hours, pH 7, lysate of ~40 million cells, control 0.95): about 0.18 thiol per antibody
- percent decrease in thiol versus No AQS control ([3]; 1 hour): 2%
- percent decrease in thiol versus No AQS control ([3]; 2 hours): 8%
- percent decrease in thiol versus No AQS control ([3]; 3 hours): 12%
- percent decrease in thiol versus No AQS control ([3]; 4 hours): 20%
- Cell Titer Glo luminescence relative to control cells ([4]; 0.25 mM): 100%
- Cell Titer Glo luminescence relative to control cells ([4]; 0.5 mM): 85%
- cytotoxic effects by microscopic observation ([4]; 0.25 and 0.5 mM): no visible cytotoxic effects
- fragmentation compared with no additive control [5]: much lower fragmentations
- viability count using trypan blue ([6]; 0.25 mM): 66.2%
- viability count using trypan blue ([6]; 0.5 mM): 64.8%
- viability count using trypan blue ([6]; 0.75 mM): 61.7%

SMILES: CC(C)(C)OC(=O)[C@@H](N)CSSC[C@H](N)C(=O)OC(C)(C)C [CDBE, L-cystine bis(t-butyl ester)]
- decrease in disulfide reduction compared to the control ([2]; 0.25 mM agent, another experiment): about 78%
- decrease in disulfide reduction compared to the control ([2]; 0.5 mM agent, 2 hours): about 93%
- thiol per antibody ([2]; 0.5 mM agent, 2 hours, control 2.26): about 0.16 thiol per antibody
- decrease in disulfide reduction compared to the control ([2]; 1 mM agent, 2 hours): ~96%
- thiol per antibody ([2]; 1 mM agent, 2 hours, control 2.26): ~0.10 thiol per antibody
- decrease in disulfide reduction compared to the control ([2]; 2 mM agent, another experiment): ~98%
- thiol groups per antibody [7]: no reduced disulfides were detected
- reduced thiols per antibody [8]: near-zero reduction

- solubility ([9]; water): ≥ 500 mM
SMILES: CC(C)(C)OC(=O)[C@@H](N)CSSC[C@H](N)C(=O)OC(C)(C)C [L-cystine bis(t-butyl ester) dihydrochloride]

- solubility ([9]; pH 7.1, aqueous buffer): < 5 mM
SMILES: Cl.Cl.N[C@@H](CSSC[C@H](N)C(=O)O)C(=O)O [L-cystine dihydrochloride, reference compound]
- thiol per antibody ([2]; L-cystine derived from saturated L-cystine solution, 3 hours, pH 7, control 1.96): about 0.74 thiol per antibody

SMILES: O=S(=O)([O-])[O-].[Cu+2] [copper sulfate]
- modulation of redox potential [10]: constant redox potential across all DTT concentrations
- intact antibody [11]: 100%
- protection at increased assay stringency [12]: protective of disulfide reduction

SMILES: [O]=[Cr](=[O])([O-])[O][Cr](=[O])(=[O])[O-] [dichromate, reference compound]
- modulation of redox potential [10]: constant redox potential across all DTT concentrations
- intact antibody ([11]; 1 mM additive, 100 μM DTT, 37° C., 1 h, control 80%): 100%
